From patent US20150037821A1, “METHODS OF IDENTIFYING HIT-ANTIBODIES AND PF4 ANTAGONISTS AND CELL LINES FOR USE THEREIN” (THE TRUSTEES OF THE UNIVERSITY OF PENNSYLVANIA, priority 2012, published 2015)

Tests used:
[1] = target: T1, PF4 (Homo sapiens, UniProt P02776); assay: DT40 cell (FcγRIIA + NFAT-Luc reporter) activation assay: inhibition by PF4 antagonists; type: cell-based; settings: for IC50: PF4 10 μg/mL, heparin 0.3 U/mL, KKO 20 μg/mL, luciferase readout after 6 hours; for inhibition of FcγRIIA-dependent cellular activation (in words): activation by KKO, dose-response, FIG. 1C
T1 construct: platelet factor 4 which is a 70 amino acid, lysine-rich, 7.8 kDa platelet-specific protein; made in house; host or cells: Drosophila Schneider 2 (S2) cells
T1 sequence (P02776 32-101): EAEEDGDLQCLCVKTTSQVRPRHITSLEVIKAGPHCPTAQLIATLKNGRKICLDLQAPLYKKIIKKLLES
Procedure: (§1) DT40 cells (chicken B cells) were cultured in RPMI supplemented with 10% fetal bovine serum, 1% chicken serum (Gibco), 50 μM 13-mercaptoethanol, 2 mM GlutaMAX (Gibco), 100 U/mL penicillin and 100 U/mL streptomycin at 37° C. under 5% CO2. Cells were co-transfected with 5 μg pEF6-FcγRIIA and 20 μg pEF6-NFAT-Luc by electroporation. Positive transformants were selected using blastidicin.
On day following transfection, cells were pelleted by centrifugation and re-suspended at 2×10^6 cells/mL in fresh medium without serum. Cell aliquots (50 μL) were placed into each well of a 96 well plate. To establish basal expression, 50 μL media was added. Further, the cells were also incubated independently with the following: PF4, heparin, RTO antibody, KKO antibody, ULCs alone, ULCs and RTO; ULCs and KKO and IV.3 antibody. Monoclonal antibody IV.3 (an FcγRIIA-blocking antibody) was used in combination with an anti-Fc antibody to activate FcγRIIA bound by IV.3 as a positive control for FcγRIIA signaling. 8 μg/mL of IV.3 was added for 15 minutes at 37° C. under 5% CO2, followed by 50 μL of sheep anti-mouse-IgG secondary antibody at 15 μg/mL to crosslink and activate these receptors. As a positive control for an intact intracellular signaling pathway, phorbol myristate acetate (PMA; 25 ng/mL) with ionomycin (1 μM) was added (not shown).
We then used this assay to measure the inhibitory capacity of the PF4 antagonist compounds described in the concurrently filed related application referenced above. PF4 (10 μg/mL) and various concentrations of potential antagonists were co-incubated for 60 min at 37° C. under 5% CO2 followed by the addition of heparin (0.3 U/mL) for 15 min at 37° C. in 5% CO2. KKO (20 μg/mL) or plasma from patients with serotonin release assay confirmed HIT (1:800 dilution) was then added. 50 μL of each mixture was added to the 96 well plate containing 50 μL of cells at a concentration of 2×10^6 cells/mL in fresh medium without serum. Plates were incubated for 6 hours at 37° C. under 5% CO2, and then frozen at −80° C. To measure activation, cells were thawed and lysed with 5× Passive Lysis Buffer (Promega) for 15 minutes. Luciferase activity was measured on a Berthold MultiLumat LB 9506 Luminometer (10 sec readings) using Promega's Luciferase Assay Reagent following the manufacturer's instructions. In other experiments, PF4 antagonists discussed herein were incubated with PF4 for 5 minutes with the same results.

[2] = tested on: platelets; assay: Serotonin release assay with 14C-labeled platelets; type: cell-based, human; settings: for inhibition of platelet activation by KKO (release of 14C-serotonin): KKO 170 μg/mL, heparin 1.0 U/mL, antagonists 2.5 mM, FIG. 1E
Procedure: To confirm the results of the novel assay, an independent, orthogonal assessment of activity was performed using a serotonin release assay. Serotonin release assays are described in Hirschman, “The use of platelet serotonin release as a sensitive method for detecting anti-platelet antibodies and a plasma anti-platelet factor in patients with idiopathic thrombocytopenic purpura”, Br. J. Haematol., 24(6):793-802 (1973), and Rauova and Cines, “Heparin-associated thrombocytopenia”, N. Engl. J. Med., 303:788-795 (1980), which are hereby incorporated by reference.
Briefly, platelet rich plasma (PRP) from healthy donors was incubated with 0.5 μL ^14C-5-hydroxytryptamine creatinine sulfate (GE Life Sciences, Piscataway, N.J.) per milliliter of PRP for 20 minutes at 37° C. to produce ^14C-labeled platelets. Serotonin uptake was inhibited by adding […] imipramine (Sigma-Aldrich, St. Louis, Mo.) to the PRP.
The radiolabeled platelets were mixed with KKO (170 μg/mL) or with known platelet-activating HIT plasma in the absence (buffer control) or presence of PF4 antagonist compounds 1, 34, 80, 101, and 96. Assays were performed in the presence of heparin (1.0 U/mL) and in the absence of heparin (background). Negative controls without antibody were studied in parallel. Data are expressed as % maximal release of radioactivity with release by the positive control plasma and 1.0 U/mL heparin defined as 100%.

[3] = tested on: FcγRIIA; assay: Activation of DT40 cells transfected with FcγRIIA and a Luc reporter; type: cell-based, human; settings: FIG. 1A
Procedure: B cells used in the novel assays of the invention were prepared as follows. NFAT-Luc was kindly provided by Prof Arthur Weiss (Shapiro, “c-rel Regulation of IL-2 gene expression may be mediated through activation of AP-1”, J. Exp. Med., 184(5):1663-1669 (1996), hereby incorporated by reference). The NFAT reporter contains three copies of a composite NFAT-activator protein-1 (AP-1) element from the human interleukin-2 (IL-2) gene promoter, and is activated by binding of NFAT (nuclear factor of activated T-cells). pEF6-FcγRIIA, which contains the human FcγRIIA coding sequence under the control of the human EF-1a promoter, was constructed by cloning a human FcγRIIA IMAGE clone into the multiple cloning site of pEF6c (Invitrogen).
as §1, with “blastidicin. […]” for “blastidicin.”
It was next examined whether FcγRIIA activation was heparin-dependent. To do so, activation by KKO was measured using a constant amount of PF4 and increasing amounts of heparin. […]

CC(=O)C1=C(O)c2cc([N+](=O)[O-])ccc2C1=O [Compound 1]
IC50 [1]: 33 µM

CCOC(=O)Cn1c(CCC(=O)O)ccc1-c1ccc(Cl)cc1 [Compound 101]
inhibition of DT40 activation by human HIT plasma ([1]; HIT plasma 1:800 dilution, similar potency as activation by KKO, FIG. 1D): inhibited | IC50 [1]: 100 µM | inhibition of FcγRIIA-dependent cellular activation (in words) [1]: complete inhibition | inhibition of DT40 activation by KKO and patient samples ([1]; antagonist concentration 500 μM, KKO and plasma from three HIT patients, FIG. 1D): completely inhibited | inhibition of serotonin release from platelets activated by plasma from patients with HIT ([2]; HIT plasma, several antagonist concentrations, FIG. 1F): inhibited | inhibition of platelet activation by KKO (release of 14C-serotonin) [2]: inhibited

O=C1CC([PH](=O)O)CO1 (stereo not shown) [Compound 34]
IC50 [1]: > 500 µM | inhibition of FcγRIIA-dependent cellular activation (in words) [1]: not inhibitory

O=C(O)c1ccccc1OP(=O)(O)O [Compound 96]
IC50 [1]: 500 µM | inhibition of FcγRIIA-dependent cellular activation (in words) [1]: less potent | inhibition of platelet activation by KKO (release of 14C-serotonin) [2]: inhibited

O=C(O)CCc1ccc(-c2ccc(Cl)cc2)n1CC(=O)O [Compound 80]
IC50 [1]: 440 µM | inhibition of FcγRIIA-dependent cellular activation (in words) [1]: less potent | inhibition of platelet activation by KKO (release of 14C-serotonin) [2]: inhibited

B1: PF4: platelet factor 4, 70 amino acid, lysine-rich 7.8 kDa platelet-specific CXC chemokine protein (protein, UniProt P02776 32-101, looked up)
Platelet factor 4: T1 sequence (P02776 32-101)
activation of FcγRIIA-expressing DT40 cells, substance added alone [3]: did not activate
